These results are taken from publication PMC7307922 (Journal of Medicinal Chemistry, 2020).

Data set [1] concerns the target T1, mFFA3 (Mus musculus, UniProt Q3UFD7).
T1 sequence (Q3UFD7 1-319): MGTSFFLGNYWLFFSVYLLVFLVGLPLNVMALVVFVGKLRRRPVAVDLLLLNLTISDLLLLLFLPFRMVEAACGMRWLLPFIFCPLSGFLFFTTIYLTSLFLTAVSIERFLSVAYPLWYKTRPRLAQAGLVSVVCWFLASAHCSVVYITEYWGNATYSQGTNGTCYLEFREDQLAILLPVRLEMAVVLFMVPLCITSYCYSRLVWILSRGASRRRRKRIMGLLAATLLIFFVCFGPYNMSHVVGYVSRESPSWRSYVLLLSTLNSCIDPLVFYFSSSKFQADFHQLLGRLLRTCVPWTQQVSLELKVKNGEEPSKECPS
Description: cAMP assay, mFFA3. The following applies: for loss of potency from human to rodent species: hFFA3 vs rFFA3 and mFFA3, cAMP. Format: cell-based. Also noted: expressed in transfected cells; host or cells: HEK293 Flp-In T-REx, doxycycline-induced. The method, then:
(§1) With several compounds with improved properties in hand, we wished to investigate the suitability of the compounds as tools for in vivo studies in rodents. Because of the moderate potency and low solubility associated with this series, it has been presumed that they are poorly suited as in vivo tools.
(§2) HEK293 Flp-In T-Rex cells stably transfected with FFA3-eYFP receptors were incubated overnight with doxycycline to induce expression, then harvested, and cryopreserved. On the day of each experiment, cells were thawed and resuspended in stimulation buffer. Assays were carried out using a 384-well plate format with 3000 cells/well using the CisBio cAMP GS dynamic kit as per manufacturer’s protocol. Compounds were tested for the ability to inhibit 0.3 μM forskolin-induced cAMP production after co-incubation for 1 h. Reactions were measured using a PHERAstar FS plate reader (BMGLabtech, Aylesbury, UK).

Another data set deals with T2, rFFA3 (Rattus norvegicus, UniProt B2GV46).
T2 construct: expressed in transfected cells; host or cells: HEK293 Flp-In T-REx, doxycycline-induced
T2 sequence (B2GV46 1-319): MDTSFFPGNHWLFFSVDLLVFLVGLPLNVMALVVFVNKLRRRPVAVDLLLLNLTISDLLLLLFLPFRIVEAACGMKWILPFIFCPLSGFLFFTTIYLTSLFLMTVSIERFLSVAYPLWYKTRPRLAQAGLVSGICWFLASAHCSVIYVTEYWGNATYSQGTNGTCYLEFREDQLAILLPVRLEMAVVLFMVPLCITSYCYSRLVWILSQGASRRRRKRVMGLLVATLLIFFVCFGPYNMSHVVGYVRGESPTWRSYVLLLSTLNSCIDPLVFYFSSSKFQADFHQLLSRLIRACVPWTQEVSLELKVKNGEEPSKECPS
Description: cAMP assay, rFFA3. The format is cell-based. The method, then:
as §1, §2

The next data set deals with T3, hFFA3 (Homo sapiens, UniProt O14843).
T3 sequence (O14843 1-346): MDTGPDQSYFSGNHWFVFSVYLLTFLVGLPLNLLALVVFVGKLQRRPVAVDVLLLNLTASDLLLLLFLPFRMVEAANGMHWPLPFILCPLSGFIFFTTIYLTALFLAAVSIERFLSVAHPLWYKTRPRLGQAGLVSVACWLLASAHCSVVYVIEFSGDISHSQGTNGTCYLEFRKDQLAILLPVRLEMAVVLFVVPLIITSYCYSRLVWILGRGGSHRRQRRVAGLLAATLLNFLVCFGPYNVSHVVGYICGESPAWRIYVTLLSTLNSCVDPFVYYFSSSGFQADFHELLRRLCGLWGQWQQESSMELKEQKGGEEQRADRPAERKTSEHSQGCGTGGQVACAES
The data set can be described thus: biochemical. Conditions: for GTPγS pEC50: hFFA3, mean of ≥3 independent experiments ± standard error; for Emax: read-out: GTPγS Emax. The gist of the method: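 Membranes from doxycycline (100 ng/mL)-induced Flp-In T-REx HEK293 cells expressing FFA3 incubated with [^35S]GTPγS (50 nCi/tube) 1 h at 25 °C. Bound [^35S]GTPγS collected by filtration and counted by liquid scintillation as a measure of Gi/o activation.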

The subject of another data set is FFA3 R258A. On the set-up: method as in PMID 24870406. The following applies: orthosteric binding site; cited from earlier work.
Data set [2] concerns cells dissociated from mouse dorsal root ganglia. Description: Intracellular calcium in dorsal root ganglion cells of wild-type and FFA3 KO mice. The following applies: 5 μM; DRG cells of wild type vs FFA3 KO mice. Format: cell-based.
Description: Colonic innervating DRGs were isolated from the T9-L2 region of the spinal cord of C57/BL6 mice and from FFA3 knock-out animals and immediately placed in cold Hanks’ balanced salt solution (HBSS; Sigma-Aldrich). Isolated DRGs were initially digested with HBSS containing L-cysteine (0.3 mg/mL) and papain (2.0 mg/mL) for 20 min at 37 °C. The solution was removed and replaced with HBSS contain collagenase (4.0 mg/mL) and dispase (4.0 mg/mL) (20 min at 37 °C) for further digestion. The collagenase solution was then replaced with DMEM to stop the reaction. The DRGs were finally dissociated by mechanical trituration using a pipette. Dissociated cells were plated on matrigel-coated coverslips and placed in an incubator (37 °C and 5% CO2). Following a 2 h incubation, cells were flooded with 90% DMEM (Sigma) supplemented with 10% fetal calf serum and 1% PenStrep and further incubated overnight at 37 °C and 5% CO2.
To measure intracellular calcium and its potential regulation, dissociated cells on the coverslips were loaded with Fura 8-AM (3 μM) (Stratech Scientific Limited) for 20 min at 37 °C in the dark. […]
Data set [3] deals with T1, mFFA3. The data set can be described thus: biochemical. The method, then: Reactions were initiated with the addition of [^35S]GTPγS at 50 nCi per tube; reactions were terminated after 1 h of incubation at 25 °C by rapid filtration through GF/C glass filters using a 24-well Brandel cell harvester (Alpha Biotech, Glasgow, UK). Unbound radioligand was removed from filters by washing three times with ice-cold wash buffer (50 mM Tris–HCl, pH 7.4, and 10 mM MgCl2), and [^35S]GTPγS binding was determined by liquid scintillation spectrometry.

Data set [4] in a line: Chemical stability in DMSO (NMR). The format is physicochemical. The method, then: To further ensure the suitability of 57 as a tool compound for in vitro studies, the chemical stability was also evaluated in dimethyl sulfoxide (DMSO).

The structures appear in SMILES notation.

As to `CC1=C(C(=O)Nc2ccccc2C)C(c2ccco2)C2=C(CCCC2=O)N1` (stereo not shown) [Compound 1, 4-(Furan-2-yl)-2-methyl-5-oxo-N-(o-tolyl)-1,4,5,6,7,8-hexahydroquinoline-3-carboxamide, reference compound], on mFFA3 [1], the “loss of potency from human to rodent species” value was 3–10 fold and the “cAMP pEC50 (mFFA3)” value was determined as 5.42 ± 0.04. In addition, the “cAMP pEC50 (rFFA3)” value at rFFA3 is listed as 5.87 ± 0.07. In addition, the “higher potency than 3-furyl derivative 2” value on hFFA3 (GTPγS assay) is reported as “approximately 2 fold”. Further, at hFFA3, the “GTPγS pEC50” value is recorded as 5.65 ± 0.07 and the Emax was 100%. Further, the “effect of mutation R258A” value with FFA3 R258A is given as “not affected”.

Take `CC1=C(C(=O)Nc2cc(Cl)ccc2Cl)C(c2ccco2)C2=C(CCCC2=O)N1` (stereo not shown) [Compound 16, reference compound]: at mFFA3 [1], the “loss of potency from human to rodent species” value is reported as 3–10 fold and the “cAMP pEC50 (mFFA3)” value is recorded as 5.88 ± 0.05. Further, the “cAMP pEC50 (rFFA3)” value at rFFA3 is on record as 6.34 ± 0.04. At hFFA3, the “GTPγS pEC50” value is given as 5.74 ± 0.11 and the maximal response (Emax) was 120%.

For `CCCC1C(C(=O)Nc2cc(Cl)ccc2Cl)=C(C)NC2=C1C(=O)CCC2` (stereo not shown) [Compound 57, N-(2,5-Dichlorophenyl)-2-methyl-5-oxo-4-propyl-1,4,5,6,7,8-hexahydroquinoline-3-carboxamide], the “elevation of intracellular calcium levels” value in data set [2] is “large elevation in intracellular calcium levels in wild type but not FFA3 KO cells”. Besides, a half-maximal effect on mFFA3 [3] (EC50) was put at 2000 nM. Besides, the “chemical stability in DMSO” value is “complete stability” in data set [4] (4 °C, after 1 and 30 days, NMR); “fully stable” in data set [4] (rt, not protected from light, 7 days); “minor decomposition” in data set [4] (rt, not protected from light, 30 days).

Consider `CC1=C(C(=O)Nc2cc(Cl)ccc2Cl)C(C2CCCC2)C2=C(CCCC2=O)N1` (stereo not shown) [Compound 63, 4-Cyclopentyl-N-(2,5-dichlorophenyl)-2-methyl-5-oxo-1,4,5,6,7,8-hexahydroquinoline-3-carboxamide], for which, on mFFA3 [1], the “cAMP pEC50 (mFFA3)” value is on record as 5.96 ± 0.04. Also, the “cAMP pEC50 (rFFA3)” value at rFFA3 was found to be 6.39 ± 0.03.

By Emax is commonly meant the greatest response seen or fitted, relative to the assay's reference. For orientation: EC50 means the concentration giving half of the maximal effect. Low values mean greater potency, high ones weaker potency.
